The source of these data is PMC10608315, “Organic Synthesis of New Secosteroids from Fucosterol, Its Intestinal Absorption by Caco-2 Cells, and Simulation of the Biological Activities of Vitamin D” (Marine Drugs, 2023).

The test system of data set [1] is Caco-2 cells. The following applies: human, Caco-2, 24 h, 1 µM.
A further data set has as its system rickets. The following applies: rats; cited from earlier work.
Details of data set [2]: method as in PMID 12628523. The following applies: cited from earlier work.
For data set [3], the system named is chemically induced cancers. The following applies: cited from earlier work.
The subject of the next data set is human breast cancer cell. More on the design: method as in PMID 10762752. The conditions noted are these: compared with 1,25-di(OH)-vitamin D3; cited from earlier work.
Data set [4] deals with Caco-2 cells. As to the kind of experiment: Intestinal absorption of mixed micellar secosteroid by differentiated Caco-2 monolayers in Transwell plates (remaining, uptake, transport). The conditions noted are these: summary of Caco-2 uptake and transport, 24 h. (Caco-2 monolayers are a common model of the intestinal barrier.)
In a further data set the test system is Caco-2. More on the design: method as in PMID 9184144. The following applies: cholesterol versus sitosterol; cited from earlier work.
On the set-up of data set [5]: method as in PMID 9598513, PMID 10389917. The following applies: potential cancer therapy; cited from earlier work.

Read-outs that look alike come from different tables or passages of the source.

For the molecule `C=C(C)C(=CC)CCC(C)C1CCC2C(=CC=C3CC(O)CCC3=C)CCCC21C` [Compound 4, (5Z,7E,24E)-(3S)-9,10-seco-5,7,10(19),24(24^1),25(27)-stigmastapentaen-3-ol], in the data set with Caco-2 cells [1], the “Concentration of micellar secosteroid remaining on the apical side” value was “significantly higher concentrations than vitamin D3”; the “Intestinal absorption (uptake and transport) ranking” value (shortened to “Intestinal absorption”) is listed as “compound 4 ≥ vitamin D3 ≥ compound 3”; the “Secosteroid transported from the monolayer into the basolateral medium” value was “No significant deviation was observed between vitamin D3 and compound 4”.

Take `C=C1CCC(O)CC1=CC=C1CCCC2(C)C1CCC2C(C)CCC(=CC)C(C)C` [Compound 3, (5Z,7E,24E)-(3S)-9,10-seco-5,7,10(19),24(24^1)-stigmastatetraen-3-ol]: in the data set on Caco-2 cells [1], the “Concentration of micellar secosteroid remaining on the apical side” value is recorded as “significantly higher concentrations than vitamin D3”; the “Intestinal absorption” value was “compound 4 ≥ vitamin D3 ≥ compound 3”.

As to `C=C1CCC(O)C/C1=C/C=C1\CCCC2(C)C1CCC2C(C)CCC(CC)C(C)C` (stereo not shown) [Vitamin D5], the Anti-rickets activity result in the data set with rickets is “very low anti-rickets activity”.

On to `C=C1/C(=C\C=C2/CCC[C@]3(C)[C@@H]([C@H](C)CC[C@@H](CC)C(C)C)CC[C@@H]23)C[C@@H](O)C[C@@H]1O` [1-OH-vitamin D5], for which the “Side effects like weight loss and disruptions to calcium levels” value in data set [2] is listed as “markedly fewer side effects”. The “Effectiveness compared with 1,25-di(OH)-vitamin D3” value in data set [3] is “less effective than 1,25-di(OH)-vitamin D3”. Further, the “Treatment of chemically induced cancers” value in data set [3] (mice and rats) is listed as “effectively treated”. Besides, in the data set with human breast cancer cell, the “Inhibition of human breast cancer cell growth” value was “as effective as 1,25-di(OH)-vitamin D3”.

With `C=C1CC[C@H](O)C/C1=C/C=C1\CCC[C@]2(C)[C@@H]([C@H](C)CCCC(C)C)CC[C@@H]12` [Vitamin D3, cholecalciferol], in the data set with Caco-2 cells [4], the “Intestinal absorption” value is reported as “compound 4 ≥ vitamin D3 ≥ compound 3”.

Turning to `CC(C)CCC[C@@H](C)[C@H]1CC[C@H]2[C@@H]3CC=C4C[C@@H](O)CC[C@]4(C)[C@H]3CC[C@]12C` [cholesterol], the “Uptake and transport by Caco-2” value in the data set with Caco-2 was “higher for cholesterol than for sitosterol”.

Consider `C=C1C(=CC=C2CCCC3(C)C2CCC3C(C)CCCC(C)(C)O)CC(O)CC1O` (stereo not shown) [1,25-di(OH)-Vitamin D3], for which the “Side effects in clinical trials” value in data set [5] is “side effects like hypercalcemia [75] and hypercalciuria”.
